US10920265B2, “Compounds and methods for detection of enzymes that remove methyl succinyl groups from epsilon-amino lysine moieties” (Enzo Life Sciences, Inc., priority 2011, dated 2021)
*: point of attachment. AMC = Cc1cc(=O)oc2cc(N*)ccc12

What was measured:
Conditions in all cases: 50 μM substrate
HDAC2 = target: T1, HDAC2 (Homo sapiens, UniProt Q92769); experiment: HDAC activity with fluorogenic lysyl substrates; assay type: biochemical
T1 construct: purchased ENZO Life Sciences BML-SE500
Procedure: (§1) The Ac-Lys(Succ.)-AMC substrate was tested for activity with recombinant preparations of human HDACs 1-11, SIRTs 1-4, 6 and 7, a complex of HDAC3 with a fragment of the activating protein NCOR1 and with HeLa nuclear extract, a rich source of active HDACs in their native multiprotein complexes.
(§2) Enzyme and extract catalog products obtained from ENZO Life Sciences included: HDAC1 (Cat. # BML-SE456), HDAC2 (Cat. # BML-SE500), HDAC3 (Cat. # BML-SE507), HDAC3/NCOR1 Complex (Cat. # BML-SE515), HDAC6 (Cat. # BML-SE508), HDAC8 (Cat. # BML-SE145), HDAC10 (Cat. # BML-SE559), HDAC11 (Cat. # BML-SE560), SIRT1 (Cat. # BML-SE239), SIRT2 (Cat. # BML-SE251), SIRT3 (Cat. # BML-SE270), SIRT5 (Cat. # BML-SE555), HeLa Nuclear Extract (Cat. # BML-KI140), Trypsin (“Fluor de Lys Developer”, 80 mg/ml bovine trypsin in 1 mM HCl, Cat. # BML-KI105 or “Fluor de Lys Developer II”, 80 mg/ml bovine trypsin in 1 mM HCl, Cat. # BML-KI176). […] Enzymes obtained from BPS Bioscience, San Diego, Calif. included: human recombinants SIRT4 (Cat. #50015), SIRT6 (Cat. #50017), SIRT7 (Cat. #50018). HeLa whole cell extract was obtained from HeLa S3 cells (American Type Culture Collection) grown in a medium of MEM/10% fetal bovine serum (FBS) as follows: 1) 9×10^6 cells were suspended by trypsinization, followed by a phosphate buffered saline (PBS) rinse and addition of MEM/10% FBS (1.5 mL) to eliminate trypsin before transfer to a 15 mL conical tube; 2) cells were sedimented by a low speed centrifugation, gently resuspended in PBS and sedimented again and supernatant removed; 3) lysis was induced by resuspension in 0.8 mL 50 mM Tris/HCl, pH 8.0 with the non-denaturing detergent NP-40 (0.5%), placement on ice and brief vortexing every 5 min. for 30 min.; 4) 100 μl of a concentrated salt solution in the same buffer was added in order to bring the final buffer composition to 50 mM Tris/C1, pH 8.0, 137 mM NaCl, 2.7 mM KCl, 1 mM MgCl2, 0.5% NP-40; 5) particulate matter was cleared by centrifugation and the cleared lysate supernatant transferred to a 1.5 mL Eppendorf tube and stored on ice until use in activity assays.
(§3) Assays were performed at 37° C., according to the manufacturer's instructions for the “SIRT1 Fluorometric Drug Discovery Kit” from Enzo Life Sciences (ELS) (Cat. # BML-AK555), with exceptions described as follows. Where indicated in figures and text, SIRT1 enzyme was replaced with another enzyme or extract and the “Fluor de Lys-SIRT1 Substrate” (Ac-Arg-His-Lys-Lys(Ac)-AMC; ELS Cat. # BML-KI-177) was replaced with another acetylated, succinylated or trifluoroacetylated substrate.

HDAC1 = target: T2, HDAC1 (Homo sapiens, UniProt Q13547); experiment: HDAC activity with fluorogenic lysyl substrates; assay type: biochemical
T2 construct: purchased ENZO Life Sciences BML-SE456
T2 sequence (Q13547 whole entry): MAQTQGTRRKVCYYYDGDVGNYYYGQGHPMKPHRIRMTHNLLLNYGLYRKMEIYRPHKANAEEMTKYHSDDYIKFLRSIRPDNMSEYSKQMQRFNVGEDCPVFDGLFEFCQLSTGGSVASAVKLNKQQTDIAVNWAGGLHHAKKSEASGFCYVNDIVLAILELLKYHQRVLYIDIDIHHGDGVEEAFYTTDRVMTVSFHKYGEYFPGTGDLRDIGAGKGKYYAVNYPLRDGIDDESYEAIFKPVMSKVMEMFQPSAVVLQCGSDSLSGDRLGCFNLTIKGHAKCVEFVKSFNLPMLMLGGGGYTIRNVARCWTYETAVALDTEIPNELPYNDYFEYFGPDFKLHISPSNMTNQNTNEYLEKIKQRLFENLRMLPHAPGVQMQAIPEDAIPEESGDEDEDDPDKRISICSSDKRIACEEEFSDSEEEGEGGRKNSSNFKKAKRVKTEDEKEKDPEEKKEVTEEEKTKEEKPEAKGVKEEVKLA
Procedure: as §1, §2, §3

HDAC5 = target: T3, HDAC5 (Homo sapiens, UniProt Q9UQL6); experiment: HDAC activity with fluorogenic lysyl substrates; assay type: biochemical
T3 construct: made in house; host or cells: E. coli
T3 sequence (Q9UQL6 656-1122): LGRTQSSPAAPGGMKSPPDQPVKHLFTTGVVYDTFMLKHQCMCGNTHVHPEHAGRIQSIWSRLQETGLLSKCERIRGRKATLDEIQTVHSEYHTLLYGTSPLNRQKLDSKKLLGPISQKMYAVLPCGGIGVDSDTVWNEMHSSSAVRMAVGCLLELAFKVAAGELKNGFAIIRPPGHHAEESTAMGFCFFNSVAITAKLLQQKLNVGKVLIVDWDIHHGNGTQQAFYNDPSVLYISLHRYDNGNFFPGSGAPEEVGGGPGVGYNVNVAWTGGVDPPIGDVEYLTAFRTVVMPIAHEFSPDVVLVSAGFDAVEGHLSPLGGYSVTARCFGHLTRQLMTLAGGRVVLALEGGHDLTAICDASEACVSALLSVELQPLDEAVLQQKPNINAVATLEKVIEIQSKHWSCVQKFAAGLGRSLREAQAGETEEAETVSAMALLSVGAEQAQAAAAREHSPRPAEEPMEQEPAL
Procedure: as §1, §2, §3

HDAC3/NCOR1 Complex = target: T4, HDAC3/NCOR1 Complex (Homo sapiens, UniProt O15379); experiment: HDAC activity with fluorogenic lysyl substrates; assay type: biochemical
T4 construct: purchased ENZO Life Sciences BML-SE515
T4 sequence (O15379 whole entry): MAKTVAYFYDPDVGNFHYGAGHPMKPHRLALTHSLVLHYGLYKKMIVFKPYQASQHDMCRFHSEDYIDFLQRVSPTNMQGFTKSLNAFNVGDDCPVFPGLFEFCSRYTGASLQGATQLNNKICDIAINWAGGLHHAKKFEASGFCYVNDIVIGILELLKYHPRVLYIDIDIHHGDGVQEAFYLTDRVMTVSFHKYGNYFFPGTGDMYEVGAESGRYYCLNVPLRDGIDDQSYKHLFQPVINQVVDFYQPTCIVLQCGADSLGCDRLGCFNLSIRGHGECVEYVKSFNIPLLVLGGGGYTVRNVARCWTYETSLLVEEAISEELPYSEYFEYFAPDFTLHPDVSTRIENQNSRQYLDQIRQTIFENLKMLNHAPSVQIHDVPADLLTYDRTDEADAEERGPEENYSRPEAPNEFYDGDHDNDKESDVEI
T4 sequence (O75376 395-489 partner limits assumed): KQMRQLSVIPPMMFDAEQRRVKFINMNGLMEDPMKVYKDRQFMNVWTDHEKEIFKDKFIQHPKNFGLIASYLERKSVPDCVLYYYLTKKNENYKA
Procedure: as §1, §2, §3

HeLa Nuclear Extract = experiment: Activity of HeLa nuclear extract with fluorogenic lysyl substrates; assay type: biochemical, human
Procedure: as §1, §2, §3

HDAC10 = target: T5, HDAC10 (Homo sapiens, UniProt Q969S8); experiment: HDAC activity with fluorogenic lysyl substrates; assay type: biochemical
T5 construct: purchased ENZO Life Sciences BML-SE559
T5 sequence (Q969S8 1-669): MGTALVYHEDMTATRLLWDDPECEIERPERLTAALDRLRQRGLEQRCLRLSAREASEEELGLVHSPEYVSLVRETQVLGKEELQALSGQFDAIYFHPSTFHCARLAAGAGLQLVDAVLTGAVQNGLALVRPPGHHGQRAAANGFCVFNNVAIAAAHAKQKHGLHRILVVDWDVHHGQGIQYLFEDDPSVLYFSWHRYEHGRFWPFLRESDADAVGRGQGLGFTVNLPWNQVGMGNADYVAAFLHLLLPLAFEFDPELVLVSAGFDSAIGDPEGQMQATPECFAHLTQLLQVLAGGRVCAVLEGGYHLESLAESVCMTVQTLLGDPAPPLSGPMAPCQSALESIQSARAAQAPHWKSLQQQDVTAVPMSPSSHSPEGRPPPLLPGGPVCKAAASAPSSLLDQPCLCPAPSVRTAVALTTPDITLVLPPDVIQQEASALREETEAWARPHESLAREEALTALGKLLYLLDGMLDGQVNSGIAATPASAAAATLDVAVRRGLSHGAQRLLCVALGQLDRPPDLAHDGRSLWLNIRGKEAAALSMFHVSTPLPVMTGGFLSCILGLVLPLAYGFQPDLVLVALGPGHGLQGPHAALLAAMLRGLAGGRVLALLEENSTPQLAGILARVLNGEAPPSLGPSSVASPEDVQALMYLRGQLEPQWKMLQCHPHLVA
Procedure: as §1, §2, §3

HDAC11 = target: T6, HDAC11 (Homo sapiens, UniProt Q96DB2); experiment: HDAC activity with fluorogenic lysyl substrates; assay type: biochemical
T6 construct: purchased ENZO Life Sciences BML-SE560
T6 sequence (Q96DB2 1-347): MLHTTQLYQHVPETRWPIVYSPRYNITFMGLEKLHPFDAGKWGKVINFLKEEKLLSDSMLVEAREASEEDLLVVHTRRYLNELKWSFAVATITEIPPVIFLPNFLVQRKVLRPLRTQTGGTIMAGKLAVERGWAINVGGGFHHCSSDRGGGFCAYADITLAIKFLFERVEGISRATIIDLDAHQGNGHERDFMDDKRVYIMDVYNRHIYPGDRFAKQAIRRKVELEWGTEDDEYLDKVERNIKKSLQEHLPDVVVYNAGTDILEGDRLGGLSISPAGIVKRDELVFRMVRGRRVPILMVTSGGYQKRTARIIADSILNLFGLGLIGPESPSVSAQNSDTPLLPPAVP
Procedure: as §1, §2, §3

T1 sequence (Q92769 whole entry): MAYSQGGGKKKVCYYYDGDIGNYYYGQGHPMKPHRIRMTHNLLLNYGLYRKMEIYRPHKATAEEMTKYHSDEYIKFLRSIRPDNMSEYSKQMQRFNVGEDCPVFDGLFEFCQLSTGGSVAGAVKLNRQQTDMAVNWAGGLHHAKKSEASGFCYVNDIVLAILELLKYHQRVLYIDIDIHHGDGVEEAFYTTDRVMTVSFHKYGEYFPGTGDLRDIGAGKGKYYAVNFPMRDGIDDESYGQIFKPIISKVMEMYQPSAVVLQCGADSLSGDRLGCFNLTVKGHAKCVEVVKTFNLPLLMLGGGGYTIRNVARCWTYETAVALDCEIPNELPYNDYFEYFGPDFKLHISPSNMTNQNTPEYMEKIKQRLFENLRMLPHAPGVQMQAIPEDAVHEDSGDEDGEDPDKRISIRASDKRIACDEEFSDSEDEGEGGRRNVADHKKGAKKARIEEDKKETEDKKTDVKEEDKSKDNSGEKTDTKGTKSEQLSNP

Row | Compound | Activity (HDAC2) [pmol/min/µg] | Activity (HDAC1) [pmol/min/µg] | Activity (pmol/min/μg) (HDAC5) | Activity (HDAC3/NCOR1 Complex) [pmol/min/µg] | Activity (HDAC10) [pmol/min/µg] | Activity (HDAC11) [pmol/min/µg] | Activity (pmol/min/μg) (HDAC1) | Activity (pmol/min/μg) (HDAC10) | Activity (pmol/min/μg) (HDAC11) | Activity (pmol/min/μg) (HDAC3/NCOR1 Complex) | Activity (HeLa Nuclear Extract) [pmol/min/µg]
1 | CCCCCCCCCCCCCC(=O)NCCCC[C@H](NC(C)=O)C(=O)Nc1ccc2c(C)cc(=O)oc2c1 [Compound 4, N—(N^α-acetyl-L-Lysine(N^ε-myristoyl))-AMC] | 83.05 | 1.651 | Undetectable | 79.023 | – | – | – | – | – | – | 0.819
2 | CC(=O)NCCCCC(NC(C)=O)C(=O)Nc1ccc2c(C)cc(=O)oc2c1 (stereo not shown) [Ac-Lys(Ac.)-AMC, Ac-Lys(ε-acetyl)-AMC, reference compound] | 554 | 14.8 | Undetectable | 668 | 1.21 | 4.15 | – | – | – | – | 31
3 | COC(=O)CCC(=O)NCCCC[C@H](NC(C)=O)C(=O)Nc1ccc2c(C)cc(=O)oc2c1 [Compound 5, N—(N^α-acetyl-L-Lysine(N^ε-methyl succinyl))-AMC] | 31.330 | 0.798 | Undetectable | 53.750 | – | – | – | – | – | – | 1.764

The next lines start with results.

Row | Activity (HDAC2) [pmol/min/µg] | Activity (HDAC1) [pmol/min/µg] | Activity (pmol/min/μg) (HDAC5) | Activity (HDAC3/NCOR1 Complex) [pmol/min/µg] | Activity (HDAC10) [pmol/min/µg] | Activity (HDAC11) [pmol/min/µg] | Activity (pmol/min/μg) (HDAC1) | Activity (pmol/min/μg) (HDAC10) | Activity (pmol/min/μg) (HDAC11) | Activity (pmol/min/μg) (HDAC3/NCOR1 Complex) | Compound | Activity (HeLa Nuclear Extract) [pmol/min/µg]
4 | – | – | – | – | – | – | Ac-RHKK(Ac)-AMC/21 pmol/min/μg | Ac-RHKK(Ac)-AMC/2.72 pmol/min/μg | Ac-RHKK(Ac)-AMC/6.09 pmol/min/μg | Ac-RHKK(Ac)-AMC/687 pmol/min/μg | Ac-Arg-His-Lys-Lys(ε-acetyl)-AMC (Ac-RHKK(Ac)-{AMC}; SMILES CC(=O)NCCCC[C@H](NC(=O)[C@H](CCCCN)NC(=O)[C@H](Cc1c[nH]cn1)NC(=O)[C@H](CCCNC(=N)N)NC(C)=O)C(=O)Nc1ccc2c(C)cc(=O)oc2c1) [Ac-RHKK(Ac)-AMC, p53 peptide fluorogenic deacetylase substrate, Cat. # BML-KI177, reference compound] | –
5 | 0.28 | – | Undetectable | 0.40 | – | – | Undetectable | Undetectable | Undetectable | – | CC(=O)N[C@@H](CCCCNC(=O)CCC(=O)O)C(=O)Nc1ccc2c(C)cc(=O)oc2c1 [Compound 1, N—(N^α-acetyl-L-Lysine(N^ε-succinyl))-AMC] | 0.012
